Source: patent US11440913B2, “Aminoimidazopyridazines as kinase inhibitors” (BRISTOL-MYERS SQUIBB COMPANY, priority 2017, dated 2022)
Read-outs that look alike come from different tables or passages of the source.

Columns and labels:
[1] = molecular target: His-GST-TVMV-hRIPK1(1-324) (Homo sapiens (Human), UniProt Q13546); assay: RIPK1 HTRF Binding Assay; conditions: HTRF binding, 1 h at rt; read-out: RIPK1 (IC50)
Method in brief: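 HTRF probe-displacement binding: 1 nM His-GST-TVMV-hRIPK1(1-324) (baculovirus construct), 90.6 nM probe, 0.2 nM anti-GST-Tb in 20 mM HEPES, 10 mM MgCl2, 0.015% Brij-35, 4 mM DTT, 0.05 mg/mL BSA. Incubated 1 h at rt; FRET 520/495 nm ratio, inhibition relative to DMSO-only wells.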

[2] = test system: MLKL phosphorylation in HT29-L23 human colorectal adenocarcinoma cells; assay: MLKL Phosphorylation High-Content Assay; type: cell-based; conditions: necroptosis induced with TNFα, SMAC mimetic and Z-VAD, 6 h, read-out: pMLKL (IC50)
Method in brief: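 HT29-L23 cells pretreated 30 min at 37 °C with compound (6.25 to 0.106 μM final), then necroptosis induced with TNFα 35 ng/mL, SMAC mimetic 700 nM and Z-VAD 140 nM for 6 h. Fixed cells immunostained for MLKL pS358 and imaged; IC50 and Ymax from 4-parameter logistic fit.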

Chain of His-GST-TVMV-hRIPK1(1-324) (Q13546 1-324): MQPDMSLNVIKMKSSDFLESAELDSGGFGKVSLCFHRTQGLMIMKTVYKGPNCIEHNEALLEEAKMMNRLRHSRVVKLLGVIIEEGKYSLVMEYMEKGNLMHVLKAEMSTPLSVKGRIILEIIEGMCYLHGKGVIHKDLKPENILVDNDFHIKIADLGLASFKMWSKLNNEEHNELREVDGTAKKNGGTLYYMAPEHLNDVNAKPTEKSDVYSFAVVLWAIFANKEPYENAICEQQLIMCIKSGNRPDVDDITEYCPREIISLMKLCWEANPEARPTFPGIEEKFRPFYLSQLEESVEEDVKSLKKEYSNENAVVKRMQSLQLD

Compound | IC50 [1] [nM] | IC50 [2] [nM] | IC50 ([2]; Homo sapiens) [nM]
CC(=O)Nc1cn2nc(-c3cnc(C)c(C(=O)NC(C)c4cc(C(F)(F)F)ccc4F)c3)ccc2n1 (stereo not shown) [Example 205, 5-{2-acetamidoimidazo[1,2-b]pyridazin-6-yl}-N-{1-[2-fluoro-5-(trifluoromethyl)phenyl]ethyl}-2-methylpyridine-3-carboxamide] | 27 | 74 | –
CC(=O)Nc1cn2nc(-c3cnc(C)c(C(=O)NC(C)c4cc(OC(F)(F)F)ccc4F)c3)ccc2n1 (single isomer, unassigned) [Example 9-1, 5-(2-acetamidoimidazo[1,2-b]pyridazin-6-yl)-N-(1-(2-fluoro-5-(trifluoromethoxy)phenyl)ethyl)-2-methylnicotinamide] | 25 | – | 25
COc1ncc(-c2ccc3nc(NC(C)=O)cn3n2)cc1C(=O)NCc1cc(F)cc(F)c1OC(C)C1CC1 (stereo not shown) [Example 148, N-{[2-(1-cyclopropylethoxy)-3,5-difluorophenyl]methyl}-5-(2-acetamidoimidazo[1,2-b]pyridazin-6-yl}-2-methoxypyridine-3-carboxamide] | 4 | – | 2
[2H]C([2H])(NC(=O)c1cc(-c2ccc3nc(NC(=O)CO)cn3n2)c(C)nc1C)c1cc(C(F)(F)F)ccc1F [Example 93, N-{[2-fluoro-5-(trifluoro-methyl)phenyl](deutero)methyl}-5-[2-(2-hydroxy-acetamido)imidazo[1,2-b]pyridazin-6-yl]-2,6-dimethylpyridine-3-carboxamide] | 50 | – | 129
COc1ncc(-c2ccc3nc(NC(C)=O)cn3n2)cc1C(=O)NCc1ccccc1OCC(F)(F)F [Example 108, 5-{2-acetamidoimidazo[1,2-b]pyridazin-6-yl}-2-methoxy-N-{[2-(2,2,2-trifluoroethoxy)phenyl]meth-yl}pyridine-3-carboxamide] | 4 | – | 28
COc1nc(C)c(-c2ccc3nc(NC(C)=O)cn3n2)cc1C(=O)NCc1cc(OCC2CC2)ccc1F [Example 297, N-{[5-(cyclopropylmethoxy)-2-fluorophenyl]methyl}-5-{2-acetamidoimidazo[1,2-b]pyridazin-6-yl}-2-methoxy-6-methylpyridine-3-carboxamide] | 11 | – | 36
[2H]C([2H])([2H])Oc1ncc(-c2ccc3nc(NC(C)=O)cn3n2)cc1C(=O)NCc1cc(F)cc(F)c1OC1COC1 [Example 48, N-{[3,5-difluoro-2-(oxetan-3-yloxy)phenyl]methyl}-5-{2-acetamidoimidazo[1,2-b]pyridazin-6-yl}-2-(D3)methoxypyridine-3-carboxamide] | 10 | – | 87
COc1ncc(-c2ccc3nc(NC(C)=O)c(C)n3n2)cc1C(=O)NCc1cc(C(F)(F)F)ccc1F [Example 254, 5-{2-acetamido-3-methylimidazo[1,2-b]pyridazin-6-yl}-N-{[2-fluoro-5-(trifluoromethyl)phenyl]methyl}-2-methoxypyridine-3-carboxamide] | 101 | – | 66
COc1ncc(-c2ccc3nc(NC(C)=O)cn3n2)cc1C(=O)NCc1ccccc1OCC(C)C [Example 117, 5-{2-acetamidoimidazo[1,2-b]pyridazin-6-yl}-2-methoxy-N-{[2-(2-methyl-propoxy)phenyl]methyl}pyridine-3-carboxamide] | 6 | – | 19
CCc1ncc(-c2ccc3nc(NC(C)=O)cn3n2)cc1C(=O)NCc1cc(C(F)(F)F)ccc1F [Example 329, 5-{2-acetamidoimidazo[1,2-b]pyridazin-6-yl}-2-ethyl-N-{[2-fluoro-5-(trifluoromethyl)phenyl]methyl}pyridine-3-carboxamide] | 53 | – | 88
COc1ncc(-c2ccc3nc(NC(=O)CC#N)cn3n2)cc1C(=O)NCc1cc(OC(F)(F)F)ccc1F [Example 33, 5-[2-(2-cyanoacetamido)imidazo[1,2-b]pyridazin-6-yl]-N-{[2-fluoro-5-(trifluoromethoxy)phenyl]methyl}-2-methoxypyridine-3-carboxamide] | 186 | – | 183
COc1ncc(-c2ccc3nc(NC(C)=O)cn3n2)cc1C(=O)NCc1cc(C(F)(F)F)ccc1F [Example 111, 5-{2-acetamidoimidazo[1,2-b]pyridazin-6-yl}-N-{[2-fluoro-5-(trifluoromethyl)phen-yl](deutero)methyl}-2-methoxypyridine-3-carboxamide] | 19 | 36 | –
[2H]C([2H])([2H])[C@H](NC(=O)c1cc(-c2ccc3nc(NC(C)=O)cn3n2)cnc1C)c1cc(OC(F)(F)F)ccc1F [Example 198, 5-{2-acetamidoimidazo[1,2-b]pyridazin-6-yl}-N-[(1S)-1-[2-fluoro-5-(trifluoromethoxy)phenyl](2,2,2-deutero)ethyl]-2-methylpyridine-3-carboxamide] | 16 | – | 14
CC(=O)Nc1cn2nc(-c3cc(F)c(C)c(C(=O)N[C@@H](C)c4cc(OC(F)(F)F)ccc4F)c3)ccc2n1 [Example 360, 5-{2-acetamidoimidazo [1,2-b]pyridazin-6-yl}-3-fluoro-N-[(1S)-1-[2-fluoro-5-(trifluoromethoxy)phenyl]ethyl]-2-methylbenzamide] | 6 | – | 9
COc1ncc(-c2ccc3nc(NC(C)=O)cn3n2)cc1C(=O)NCc1c(F)cc(F)cc1OCC1CC1 [Example 150, N-{[2-(cyclopropylmethoxy)-4,6-difluorophenyl]methyl}-5-{2-acetamidoimidazo[1,2-b]pyridazin-6-yl}-2-methoxypyridine-3-carboxamide] | 18 | – | 24
COc1cc(F)c(-c2ccc3nc(NC(C)=O)cn3n2)cc1C(=O)NCc1cc(F)ccc1C(=O)N1CCCC1(C)C [Example 419, N-{[2-(2,2-dimethylpyrrolidine-1-carbonyl)-5-fluorophenyl]methyl}-5-{2-acetamidoimidazo [1,2-b]pyridazin-6-yl}-4-fluoro-2-methoxybenzamide] | 4 | – | 28
CC(=O)Nc1cn2nc(-c3cnc(C)c(C(=O)NCc4cc(F)cc(F)c4OC4CCCOC4)c3)ccc2n1 (stereo not shown) [Example 186, N-{[3,5-difluoro-2-(oxan-3-yloxy)phenyl]methyl}-5-{2-acetamidoimidazo[1,2-b]pyridazin-6-yl}-2-methylpyridine-3-carboxamide] | 15 | – | 96
CC(=O)Nc1cn2nc(-c3cc(C(=O)NCc4cc(F)cc(F)c4O[C@@H]4CCOC4)c(C)nc3C)ccc2n1 [Example 61, N-({3,5-difluoro-2-[(3R)-oxolan-3-yloxy]phenyl}methyl)-5-{2-acetamidoimidazo[1,2-b]pyridazin-6-yl}-2,6-dimethylpyridine-3-carboxamide] | 33 | – | 258
N-{[3,5-difluoro-2-(oxan-3- yloxy)phenyl]methyl}-5-{2- acetamidoimidazo[1,2-b]pyridazin- 6-yl}-2-(deutero)methoxy-6- methylpyridine-3-carboxamide [Example 170] | 4 | 3 | –
COc1ncc(-c2ccc3nc(NC(C)=O)cn3n2)cc1C(=O)NC(C)c1ccccc1OC(F)(F)F (stereo not shown) [Example 137, 5-{2-acetamidoimidazo[1,2-b]pyridazin-6-yl}-2-methoxy-N-{1-[2-(trifluoro-methoxy)phenyl]ethyl}pyridine-3-carboxamide] | 7 | – | 14
CC(=O)Nc1cn2nc(-c3cnc(C)c(C(=O)NC(C)c4ccccc4OC(F)(F)F)c3)ccc2n1 (stereo not shown) [Example 202, 5-{2-acetamidoimidazo[1,2-b]pyridazin-6-yl}-2-methyl-N-{1-[2-(trifluoromethoxy)phenyl]ethyl}pyridine-3-carboxamide] | 32 | 34 | –
CC(=O)Nc1cn2nc(-c3cc(C(=O)NCCC(C)c4ccccc4)cnc3C)ccc2n1 (stereo not shown) [Example 231, 5-{2-acetamidoimidazo[1,2-b]pyridazin-6-yl}-6-methyl-N-(3-phenylbutyl)pyridine-3-carboxamide] | 6 | 60 | –
COc1ncc(-c2ccc3nc(NC(C)=O)cn3n2)cc1C(=O)NC(C)c1cccc(OC(F)(F)F)c1 (stereo not shown) [Example 125, 5-{2-acetamidoimidazo[1,2-b]pyridazin-6-yl}-2-methoxy-N-{1-[3-(trifluoro-methoxy)phenyl]ethyl}pyridine-3-carboxamide] | 34 | 153 | –
Cc1ncc(-c2ccc3nc(NC(=O)CO)cn3n2)cc1C(=O)N[C@H](C)c1cc(OC(F)(F)F)ccc1F [Example 185, N-[(1R)-1-[2-fluoro-5-(trifluoromethoxy)phenyl]ethyl]-5-[2-(2-hydroxyacetamido)imidazo [1,2-b]pyridazin-6-yl]-2-methylpyridine-3-carboxamide] | 30 | – | 81
CCc1ncc(-c2ccc3nc(NC(C)=O)cn3n2)cc1C(=O)N[C@H](C)c1cc(OC(F)(F)F)ccc1F [Example 328, 5-{2-acetamidoimidazo[1,2-b]pyridazin-6-yl}-2-ethyl-N-[(1R)-1-[2-fluoro-5-(trifluoromethoxy)phenyl]ethyl]pyridine-3-carboxamide] | 36 | – | 198
CC(=O)Nc1cn2nc(-c3cc(C(=O)NCc4ccccc4OCC(F)(F)F)c(C)nc3C)ccc2n1 [Example 68, 5-{2-acetamidoimidazo[1,2-b]pyridazin-6-yl}-2,6-dimethyl-N-{[2-(2,2,2-trifluoroethoxy)phenyl]methyl}pyridine-3-carboxamide] | 5 | – | 45
